# Test results published in patent US20070203091A1, “Methods and therapeutic compositions for improving liver, blood flow and skeletal muscle functions in advanced diseases and aging” (priority 2006, published 2007).
# “Also recorded” adds a separate entry of the source.
# Tests used:
# [1] = Karnofsky Performance Status, Phase I study; type: in vivo, human; settings: for Karnofsky Performance Status, Change from Baseline, Mean / Karnofsky Performance Status, Change from Baseline, Median / Karnofsky Performance Status, Observed Values, Mean / Karnofsky Performance Status, Observed Values, Median: ITT
# Excerpt: The present patient population was clinically deteriorating rapidly with four of the fifteen patients not meeting the protocol inclusion criteria and being granted exemptions (page 15-18). An amendment to the protocol had to be sought because Karnofsky Performance Status of some patients dropped between the screening date and the first pre-infusion date. Considering the clinical status of the present patient population at the start of the trial along with Karnofsky Performance Score being a surrogate end-point for Quality of Life in advanced, refractory, terminal cancers, these findings support claims reciting benefits to quality of life by claimed treatment in a human host in need thereof.
# [2] = Safety and tolerability (NCI CTC version 2 toxicity grades) of ATP infusion, Phase I study; type: in vivo, human
# Procedure: Two of the seven evaluable patients had advanced prostate cancer with bone metastases and one each had advanced mesothelioma, metastatic breast cancer, metastatic melanoma, metastatic colon cancer and renal cell carcinoma.
# The 50 μg/kg/min dose could be reduced to 25 μg/kg/min if adverse effects occurred. […] Succeeding infusions in that patient were at the infusion dose tolerated at the end of the previous treatment. If adverse events occurred in patients being infused at 25 μg/kg/min, the infusions were terminated and the patient received no additional infusions.
# [3] = Quality of life (EORTC QLQ-C30), appetite, energy and body weight, Phase I study; type: in vivo, human
# Excerpt: Nine qualified patients have been enrolled in the study as of Sep. 1, 2001; seven of which received the first 3 cycles of the study drug and are therefore evaluable for the primary endpoint. Two of the seven evaluable patients had advanced prostate cancer with bone metastases and one each had advanced mesothelioma, metastatic breast cancer, metastatic melanoma, metastatic colon cancer and renal cell carcinoma.
# Three of these parameters are EORTC QLQ-C30 patient-oriented questionnaire, skeletal (voluntary) muscle strength and percent body fat. […] The screening value is used as the patients' baseline. In some patients a deterioration in overall quality of life between screening and week 1, prior to the administration of study drug has been observed. […] A more accurate baseline for evaluation of the efficacy of ATP treatment on cancer cachexia and quality of life parameters is therefore recommended.
# [4] = cited from earlier work
# [5] = cited from earlier work; remark: listed apart in the source
# [6] = in vivo; cited from earlier work
# [7] = Week 1 (Infusion 1), baseline, N=15
# [8] = patients 502-505, week 1 (pre-dose) to week 13 (follow-up)
# [9] = Patient 504, while on ATP treatment
# [10] = patients 502-505, week 13 follow-up
# [11] = low levels of ATP administered directly into the duodenum
compound,measurement,setting,value
"Nc1ncnc2c1ncn2[C@@H]1O[C@H](COP(=O)(O)OP(=O)(O)OP(=O)(O)O)[C@@H](O)[C@H]1O [ATP, adenosine 5′-triphosphate]",Karnofsky Performance Status,[1]; ITT patient population,stabilize
same,"Karnofsky Performance Status, Change from Baseline, Mean",[1]; [7],0.0%
same,"Karnofsky Performance Status, Change from Baseline, Median",[1]; [7],0.0%
same,"Karnofsky Performance Status, Observed Values, Mean",[1]; [7],78.0%
same,"Karnofsky Performance Status, Observed Values, Median",[1]; [7],80.00%
same,"Karnofsky Performance Status, Change from Baseline, Mean","[1]; Week 2 (Infusion 2), N=14",−2.1%
same,"Karnofsky Performance Status, Change from Baseline, Median","[1]; Week 2 (Infusion 2), N=14",0.0%
same,"Karnofsky Performance Status, Observed Values, Mean","[1]; Week 2 (Infusion 2), N=14",77.1%
same,"Karnofsky Performance Status, Observed Values, Median","[1]; Week 2 (Infusion 2), N=14",75.0%
same,"Karnofsky Performance Status, Change from Baseline, Mean","[1]; Week 3 (Infusion 3), N=13",−2.3%
same,"Karnofsky Performance Status, Change from Baseline, Median","[1]; Week 3 (Infusion 3), N=13",0.0%
same,"Karnofsky Performance Status, Observed Values, Mean","[1]; Week 3 (Infusion 3), N=13",76.9%
same,"Karnofsky Performance Status, Observed Values, Median","[1]; Week 3 (Infusion 3), N=13",80.0%
same,"Karnofsky Performance Status, Change from Baseline, Mean","[1]; Week 4 (Infusion 4), N=11",−0.9%
same,"Karnofsky Performance Status, Change from Baseline, Median","[1]; Week 4 (Infusion 4), N=11",0.0%
same,"Karnofsky Performance Status, Observed Values, Mean","[1]; Week 4 (Infusion 4), N=11",78.2%
same,"Karnofsky Performance Status, Observed Values, Median","[1]; Week 4 (Infusion 4), N=11",80.0%
same,"Karnofsky Performance Status, Change from Baseline, Mean","[1]; Week 5 (Infusion 5), N=10",−7.0%
same,"Karnofsky Performance Status, Change from Baseline, Median","[1]; Week 5 (Infusion 5), N=10",0.0%
same,"Karnofsky Performance Status, Observed Values, Mean","[1]; Week 5 (Infusion 5), N=10",71.0%
same,"Karnofsky Performance Status, Observed Values, Median","[1]; Week 5 (Infusion 5), N=10",75.0%
same,"Karnofsky Performance Status, Change from Baseline, Mean","[1]; Week 6 (Infusion 6), N=9",−4.4%
same,"Karnofsky Performance Status, Change from Baseline, Median","[1]; Week 6 (Infusion 6), N=9",0.0%
same,"Karnofsky Performance Status, Observed Values, Mean","[1]; Week 6 (Infusion 6), N=9",74.4%
same,"Karnofsky Performance Status, Observed Values, Median","[1]; Week 6 (Infusion 6), N=9",80.0%
same,"Karnofsky Performance Status, Change from Baseline, Mean","[1]; Week 7 (Infusion 7), N=7",−4.3%
same,"Karnofsky Performance Status, Change from Baseline, Median","[1]; Week 7 (Infusion 7), N=7",0.0%
same,"Karnofsky Performance Status, Observed Values, Mean","[1]; Week 7 (Infusion 7), N=7",72.9%
same,"Karnofsky Performance Status, Observed Values, Median","[1]; Week 7 (Infusion 7), N=7",70.0%
same,"Karnofsky Performance Status, Change from Baseline, Mean","[1]; Week 8 (Infusion 8), N=7",−5.7%
same,"Karnofsky Performance Status, Change from Baseline, Median","[1]; Week 8 (Infusion 8), N=7",−10.0%
same,"Karnofsky Performance Status, Observed Values, Mean","[1]; Week 8 (Infusion 8), N=7",71.4%
same,"Karnofsky Performance Status, Observed Values, Median","[1]; Week 8 (Infusion 8), N=7",70.0%
same,"Karnofsky Performance Status, Change from Baseline, Mean","[1]; Week 10 (Follow-up), N=6",−5.0%
same,"Karnofsky Performance Status, Change from Baseline, Median","[1]; Week 10 (Follow-up), N=6",−5.0%
same,"Karnofsky Performance Status, Observed Values, Mean","[1]; Week 10 (Follow-up), N=6",73.3%
same,"Karnofsky Performance Status, Observed Values, Median","[1]; Week 10 (Follow-up), N=6",70.0%
same,"Karnofsky Performance Status, Change from Baseline, Mean","[1]; Week 13 (Follow-up), N=5",−4.0%
same,"Karnofsky Performance Status, Change from Baseline, Median","[1]; Week 13 (Follow-up), N=5",0.0%
same,"Karnofsky Performance Status, Observed Values, Mean","[1]; Week 13 (Follow-up), N=5",76.0%
same,"Karnofsky Performance Status, Observed Values, Median","[1]; Week 13 (Follow-up), N=5",80.0%
same,Karnofsky Performance Status,[1]; [8],Small increases
same,Lab. Toxicity,[2]; Patient 501,Nil noted
same,Clin. Toxicity and CTC-Grade,"[2]; Patient 501, Ca Colon, 50 & 75 μg/kg/min, Weeks 1&2",I Flushing
same,Lab. Toxicity,[2]; Patient 502,Nil noted
same,Clin. Toxicity and CTC-Grade,"[2]; Patient 502, Mesothelioma, 50, 75, & 100 μg/kg/min, Weeks 1-8",I Chest D/Dysp; also recorded: I Flushing; also recorded: I Anxiety
same,"Lab. Toxicity: Hb decreased, Grade II",[2]; Patient 503,Hb 8.0 g/dl
same,Clin. Toxicity and CTC-Grade,"[2]; Patient 503, Prostate, 50, 75, & 100 μg/kg/min, Weeks 1-8",II Confusion -
same,Lab. Toxicity,[2]; Patient 504,Nil noted
same,Lab. Toxicity,[2]; Patient 505,Nil noted
same,Clin. Toxicity and CTC-Grade,"[2]; Patient 505, Melanoma, 50, 75 & 100 μg/kg/min, Weeks 1-8",I Flushing; also recorded: AVBlock/CHB
same,Lab. Toxicity: bilirubin and LFT's - disease progression,[2]; Patient 506,Increasing
same,Clin. Toxicity and CTC-Grade,"[2]; Patient 506, Ca Colon, 50 & 75 & 100 μg/kg/min, Weeks 1-6",I Headache
same,Lab. Toxicity,[2]; Patient 507,Nil noted
same,Clin. Toxicity and CTC-Grade,"[2]; Patient 507, Ca Prostate, 50, 75 & 100 μg/kg/min, Weeks 1-8",I Nasal stuffiness; also recorded: II increasing pain -
same,Lab. Toxicity,"[2]; Patient 508, 50 μg/kg/min, Week 1",Nil noted
same,clinical toxicities,"[2]; Patient 508, first infusion at 50 μg/kg/min",No clinical toxicities were noted
same,Clin. Toxicity and CTC-Grade,"[2]; Patient 509, Renal cell carcinoma, 50, 75 & 100 μg/kg/min, Weeks 1-8",I anxiety; also recorded: I nausea; also recorded: I vomiting
same,Lab. Toxicity: AST/Alk Phos increase,"[2]; Patient 509, at FU",At FU grade I
same,patients tolerating the maximum allowable dose of 100 μg/kg/min,"[2]; continuous 8 hour intravenous infusion, first nine patients",seven of nine
same,tolerability in terminal patients,[2]; seen in patient 506,well tolerated
same,patient's comment on energy / appetite,"[3]; Patient 502, during the treatment period",improved energy levels
same,patient's comment on energy / appetite,"[3]; Patient 503, during ATP therapy",improved energy and appetite
same,patient's comment on energy / appetite,[3]; [9],increased energy and appetite
same,weight,[3]; [9],increasing
same,patient's comment on energy / appetite,"[3]; Patient 505, while on study",improved energy and appetite
same,patient's comment on energy / appetite,[3]; Patient 506,more energy and improved appetite
same,Other Endpoints (patient's comment on energy),"[3]; Patient 507, while on ATP Rx",Felt more energy
same,patient's comment on energy / activity,[3]; Patient 509,subjective improvement in energy and activity
same,subjective comments of several patients on appetite and energy,"[3]; during the study, first nine patients",improved appetite and energy
same,Global Health Status of the QOL EORTC QLQ-C30,"[3]; patients 502-505, screening (week <1) to follow-up (week 10)",Increases
same,appetite loss,"[3]; patients 502-505, screening to week 10 (follow-up)",Decreases
same,body weight,[3]; [8],Stabilization
same,Global Health Status of the QOL EORTC QLQ-C30,[3]; [10],decline
same,appetite loss,[3]; [10],return to screening baseline
same,arterial oxygen pressure (PaO2),[4]; after the administration of ATP into the duodenum,increase
same,Pulmonary Vascular Resistance,[4]; [11],reductions
same,arterial blood pressure or heart rate,[4]; [11],No effects
same,blood flow,[4]; [11],increases
same,peripheral vascular resistance,[4]; [11],reductions
same,increase in vascular diameter,[5]; blood plasma ATP about 1 microM,8%
same,increase in blood flow,"[5]; blood plasma ATP about 1 microM, corresponding to the increase in vascular diameter",≥ 17%
same,site of vasodilation,"[5]; intraluminal, physiological concentrations","not only local vasodilation, but also vasodilation at sites upstream from the site of its application"
same,half-life of expanded ATP pools in red blood cells,[6],about 6 hours
